Counter-ions that a name gives are not always drawn.
Tests used:
human alpha2A receptors = biological target: T1, human alpha2A receptors (Homo sapiens, UniProt P08913); assay: Determination of alpha2A antagonistic activity in vitro (FLIPR calcium assay, CHO cells); format: cell-based; conditions: for Kb: Kb calculated with the Cheng-Prusoff equation from IC50, adrenaline as agonist, CHO cells, human alpha2A, read-out: Alpha 2A Adrenaline Kb; for IC50: antagonism of adrenaline stimulation, CHO cells stably transfected with human alpha2A receptor and Gα16, intracellular calcium (FLIPR), read-out: Alpha 2A Adrenaline IC50
T1 construct: host or cells: CHO cells, cotransfected with pCEP-Gα16
T1 sequence (P08913 1-465): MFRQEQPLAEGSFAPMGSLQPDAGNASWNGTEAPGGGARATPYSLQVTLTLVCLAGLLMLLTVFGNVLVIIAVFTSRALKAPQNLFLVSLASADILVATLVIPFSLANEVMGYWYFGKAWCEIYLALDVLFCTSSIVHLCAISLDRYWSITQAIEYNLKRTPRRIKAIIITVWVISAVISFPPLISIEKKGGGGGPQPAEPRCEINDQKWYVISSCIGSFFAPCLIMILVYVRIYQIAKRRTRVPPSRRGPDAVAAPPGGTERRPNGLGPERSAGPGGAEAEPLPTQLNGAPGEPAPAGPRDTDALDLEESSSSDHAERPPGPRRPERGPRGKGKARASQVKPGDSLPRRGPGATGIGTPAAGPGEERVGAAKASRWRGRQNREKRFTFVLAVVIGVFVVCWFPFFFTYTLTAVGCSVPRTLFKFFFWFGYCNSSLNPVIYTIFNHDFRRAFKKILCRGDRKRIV
Description: (§1) EXPERIMENT 1: Determination of alpha2A and alpha2C Antagonistic Activity In Vitro
(§2) Chinese hamster ovary (CHO) cells stably transfected with human alpha2A or alpha2C receptors (University of Turku, Finland) were cotransfected with the expression vector pCEP-Gα16 (Molecular Devices, CA, USA) were used in this experiment. The cells were maintained at 37° C. in a 5% CO2/95% air atmosphere. The cells were cultured in HAM F-12 medium supplemented with 10% FCS, 25 mM HEPES, 100 IU/ml penicillin, 100 µg/ml streptomycin, 500 μg/ml geneticin and 240 μg/ml hygromycin B. The cells were subcultured twice weekly with 0.25% trypsin and 1 mM EDTA. The subculture ratio was 1:5-1:20. The growth medium was changed every 2 or 3 days. All cell culture reagents were from Gibco. The day before the experiment the cells were plated into black-walled, clear bottom 384-well plates at a density of 10,000 cells/well.
(§3) The growth medium was removed and the cells were incubated with the test compounds and the FLIPR Calcium 6 Assay reagent (Molecular Devices, CA, USA) for 2 h at 37° C. in dark. The test compounds (concentrations in cells 100 pM-10 μM) were dissolved in Probenecid-Ringer consisting of 150 mM NaCl, 3 mM KCl, 1.2 mM MgCl2, 1 mM CaCl2, 5 mM glucose, 20 mM HEPES and 2.5 mM probenecid (pH 7.4 adjusted with 1.0 M NaOH). The osmolarity was adjusted to 322 milliosmoles with Osmostat® OM-6020 osmometer (DIC Kyoto Daiichi Kagagu Co. Ltd, Japan). […] All experiments were performed at 37° C. For agonism measurements the test compounds dissolved in Probenecid-Ringer were applied by FLIPR Tetra at 15 s time point. In order to determine antagonism, the cells were stimulated either with 100 nM adrenaline or noradrenaline and the test compounds were added to the cells 2 h before the experiment with the FLIPR Calcium 6 Assay reagent. […] Typically, there were four replicates at each concentration and six different dose levels. For example, if the number of plates from which results were obtained was three, 72 (4*6*3) wells were thus measured to construct dose-response relationship. The samples were excited at 485 nm and emission was detected at 525 nm with a 515 nm cut-off filter. The minimum fluorescence value subtracted from the maximum value for each well was used in the calculations. ScreenWorks version 4.0 software was used for analyzing the results. Fitting of the antagonist dose-response results was performed with the free Hill equation and the IC50 values were fitted with IDBS XE software using model 200: y=(A+(B/(1+((x/C)^D)))), where A is the curve maximum, B the curve minimum and C equals the EC50 value. D is slope factor (Hill). Kb was calculated with the Cheng-Prusoff equation Kb=A/((B/C)+1), where A is the IC50 of antagonist, B the concentration of agonist and C the EC50 of the agonist.

human alpha2C receptors = biological target: T2, human alpha2C receptors (Homo sapiens, UniProt P18825); assay: Determination of alpha2C antagonistic activity in vitro (FLIPR calcium assay, CHO cells); format: cell-based; conditions: for Kb: Kb calculated with the Cheng-Prusoff equation from IC50, adrenaline as agonist, CHO cells, human alpha2C, read-out: Alpha 2C Adrenaline Kb; for IC50: antagonism of adrenaline stimulation, CHO cells stably transfected with human alpha2C receptor and Gα16, intracellular calcium (FLIPR), read-out: Alpha 2C Adrenaline IC50
T2 construct: host or cells: CHO cells, cotransfected with pCEP-Gα16
T2 sequence (P18825 1-462): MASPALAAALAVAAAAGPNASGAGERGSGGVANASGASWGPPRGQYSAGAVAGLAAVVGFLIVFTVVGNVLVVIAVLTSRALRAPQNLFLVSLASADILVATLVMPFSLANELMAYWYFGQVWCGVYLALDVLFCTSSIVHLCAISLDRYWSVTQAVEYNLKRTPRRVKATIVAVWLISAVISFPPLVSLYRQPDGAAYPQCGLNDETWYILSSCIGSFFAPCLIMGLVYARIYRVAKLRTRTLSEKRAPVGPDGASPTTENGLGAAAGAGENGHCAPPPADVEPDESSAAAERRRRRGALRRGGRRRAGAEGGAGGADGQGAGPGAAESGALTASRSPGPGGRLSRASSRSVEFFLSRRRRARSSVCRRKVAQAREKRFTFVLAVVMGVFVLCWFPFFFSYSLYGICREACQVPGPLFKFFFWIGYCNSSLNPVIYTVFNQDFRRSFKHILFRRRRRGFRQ
Description: as §1, §2, §3

Row | Kb (human alpha2A receptors) [nM] | IC50 (human alpha2A receptors) [nM] | Kb (human alpha2C receptors) [nM] | IC50 (human alpha2C receptors) [nM] | SMILES
1 | 100 | 2230 | 2.57 | 0.26 | Cc1cccc(-n2nc(C)cc2N2CCN(C[C@H]3COc4ccccc4O3)CC2)n1 [Compound of example 40, (S)-1-((2,3-Dihydrobenzo[b][1,4]dioxin-2-yl)methyl)-4-(3-methyl-1-(6-methylpyridin-2-yl)-1H-pyrazol-5-yl)piperazine]
2 | > 449 | > 10000 | 401 | 40.4 | CC(=O)c1nsnc1N1CCN(C[C@H]2COc3ccccc3O2)CC1 [Compound of example 33, (S)-1-(4-(4-((2,3-Dihydrobenzo[b][1,4]dioxin-2-yl)methyl)piperazin-1-yl)-1,2,5-thiadiazol-3-yl)ethanone]
3 | > 449 | > 10000 | 0.527 | 0.054 | O=C1NCCN1c1nsnc1N1CCN(C[C@H]2COc3ccccc3O2)CC1 [Compound of example 30, (S)-1-(4-(4-((2,3-Dihydrobenzo[b][1,4]dioxin-2-yl)methyl)piperazin-1-yl)-1,2,5-thiadiazol-3-yl)imidazolidin-2-one]
4 | 405 | 9020 | 0.394 | 0.04 | O=C1CCCN1c1ncsc1N1CCN(C[C@H]2COc3ccccc3O2)CC1 [Compound of example 20, (S)-1-(5-(4-((2,3-Dihydrobenzo[b][1,4]dioxin-2-yl)methyl)piperazin-1-yl)thiazol-4-yl)pyrrolidin-2-one]
5 | > 449 | > 10000 | 0.92 | 0.09 | CN(C)C(=O)c1nsnc1N1CCN(C[C@H]2COc3ccccc3O2)CC1 [Compound of example 34, (S)-4-(4-((2,3-Dihydrobenzo[b][1,4]dioxin-2-yl)methyl)piperazin-1-yl)-N,N-dimethyl-1,2,5-thiadiazole-3-carboxamide]
6 | 82 | 1830 | 0.29 | 0.03 | COc1cccc(-n2nc(C)cc2N2CCN(C[C@H]3COc4ccccc4O3)CC2)n1 [Compound of example 39, (S)-1-((2,3-Dihydrobenzo[b][1,4]dioxin-2-yl)methyl)-4-(1-(6-methoxypyridin-2-yl)-3-methyl-1H-pyrazol-5-yl)piperazine]
7 | 149 | 3320 | 2.28 | 0.23 | Cc1cc(N2CCN(C[C@H]3COc4ccccc4O3)CC2)n(-c2ccccn2)n1 [Compound of example 38, (S)-1-((2,3-Dihydrobenzo[b][1,4]dioxin-2-yl)methyl)-4-(3-methyl-1-(pyridin-2-yl)-1H-pyrazol-5-yl)piperazine]
8 | 43 | 960 | 2.93 | 0.3 | Cc1c(C(C)(C)O)c(N2CCN(C[C@H]3COc4ccccc4O3)CC2)nn1C [Compound of example 13, (S)-2-(3-(4-((2,3-Dihydrobenzo[b][1,4]dioxin-2-yl)methyl)piperazin-1-yl)-1,5-dimethyl-1H-pyrazol-4-yl)propan-2-ol]
9 | 233 | 5190 | 30.1 | 3.03 | c1cnc(Nc2nsnc2N2CCN(C[C@H]3COc4ccccc4O3)CC2)nc1 [Compound of example 18, (S)-4-(4-((2,3-Dihydrobenzo[b][1,4]dioxin-2-yl)methyl)piperazin-1-yl)-N-(pyrimidin-2-yl)-1,2,5-thiadiazol-3-amine]
10 | > 449 | > 10000 | 73.1 | 7.36 | c1ccc(COc2ncccc2Nc2nsnc2N2CCN(C[C@H]3COc4ccccc4O3)CC2)cc1 [Compound of example 37, (S)—N-(2-(Benzyloxy)pyridin-3-yl)-4-(4-((2,3-dihydrobenzo[b][1,4]-dioxin-2-yl)methyl)piperazin-1-yl)-1,2,5-thiadiazol-3-amine hydrochloride]
11 | > 449 | > 10000 | 1.64 | 0.17 | Cc1c(N2CCN(C)C2=O)c(N2CCN(C[C@H]3COc4ccccc4O3)CC2)nn1C [Compound of example 15, (S)-1-(3-(4-((2,3-Dihydrobenzo[b][1,4]dioxin-2-yl)methyl)piperazin-1-yl)-1,5-dimethyl-1H-pyrazol-4-yl)-3-methylimidazolidin-2-one]
12 | > 449 | > 10000 | 1570 | 158 | c1ccc2c(c1)OC[C@H](CN1CCN(c3nncs3)CC1)O2 [Compound of example 22, (S)-2-(4-((2,3-Dihydrobenzo[b][1,4]dioxin-2-yl)methyl)piperazin-1-yl)-1,3,4-thiadiazole]
13 | > 449 | > 10000 | 0.55 | 0.06 | Cc1c(N2CCNC2=O)c(N2CCN(C[C@H]3COc4ccccc4O3)CC2)nn1C [Compound of example 9, (S)-1-(3-(4-((2,3-Dihydrobenzo[b][1,4]dioxin-2-yl)methyl)piperazin-1-yl)-1,5-dimethyl-1H-pyrazol-4-yl)imidazolidin-2-one]
14 | > 449 | > 10000 | 1.66 | 0.17 | Cc1nsc(N2CCN(C[C@H]3COc4ccccc4O3)CC2)c1N1CCCC1=O [Compound of example 31, (S)-1-(5-(4-((2,3-Dihydrobenzo[b][1,4]dioxin-2-yl)methyl)piperazin-1-yl)-3-methylisothiazol-4-yl)pyrrolidin-2-one]
15 | > 449 | > 10000 | 4210 | 424 | CC(=O)Nc1nsnc1N1CCN(C[C@H]2COc3ccccc3O2)CC1 [Compound of example 16, (S)—N-(4-(4-((2,3-Dihydrobenzo[b][1,4]dioxin-2-yl)methyl)piperazin-1-yl)-1,2,5-thiadiazol-3-yl)acetamide]
16 | 514 | 11500 | 28.4 | 2.86 | O=C1NCCN1c1nnc(N2CCN(C[C@H]3COc4ccccc4O3)CC2)s1 [Compound of example 25, (S)-1-(5-(4-((2,3-Dihydrobenzo[b][1,4]dioxin-2-yl)methyl)piperazin-1-yl)-1,3,4-thiadiazol-2-yl)imidazolidin-2-one]
17 | > 449 | > 10000 | 1350 | 136 | COCc1nc(N2CCN(C[C@H]3COc4ccccc4O3)CC2)no1 [Compound of example 23, (S)-3-(4-((2,3-Dihydrobenzo[b][1,4]dioxin-2-yl)methyl)piperazin-1-yl)-5-(methoxymethyl)-1,2,4-oxadiazole]

— patent US10774074B2, “2-(1-heteroarylpiperazin-4-yl)methyl-1,4-benzodioxane derivatives as alpha2C antagonists” (ORION CORPORATION, priority 2015, dated 2020)
